The record followed here is patent US11464770B2, “Anticancer pharmaceutical composition” (NATIONAL CANCER CENTER, priority 2016, dated 2022).

Read-outs that look alike come from different tables or passages of the source. Where only a bound is given, the exact number is not on record here.

For assay [1], the system named is prostate cancer cell lines (e.g. DU145/TXR). Kind of assay: Cell based assay, cell viability (CellTiter-Glo), prostate cancer cell lines. To be noted: Homo sapiens, 72 hours treatment, final concentration 0 to 2 μM. The procedure:
(§1) Commercially available bladder cancer, prostate cancer, lung cancer, breast cancer, blood cancer, pancreatic cancer, colorectal cancer, brain cancer, neuroblastoma, melanoma, liver cancer, cervical carcinoma, ovarian cancer, renal cancer, and papilloma cell lines were each treated with trypsin-EDTA and cultured, followed by being seeded in each well of a 96 well plate. After 24 hours of treatment at constant temperature, the respective cells were treated with the candidate compound so that a final concentration became 0 to 2 μM. The treated cells were additionally cultured for 72 hours, and cell viability was measured by using an ATP detection method (CellTiter-Glo® Luminescent Cell Viability Assay, Promega).

Assay [2] concerns ovarian cancer cell lines. Kind of assay: Cell based assay, cell viability (CellTiter-Glo), ovarian cancer cell lines. The following applies: Homo sapiens; OVCAR-3 cells. How it is done: as §1
Setting [3] is: CWR22 cells, read-out: IC50, prostate cancer cell line CWR22.
[4] abbreviates: DU-145, DU145/TXR cells, read-out: IC50, prostate cancer cell line DU145/TXR.
Where [5] appears, read: DU-145, DU145 cells, read-out: IC50, prostate cancer cell line DU145.
[6] abbreviates: LNcap cells, read-out: IC50, prostate cancer cell line LNcap.
Setting [7] is: PC-3 cells, read-out: IC50, prostate cancer cell line PC-3.

In the case of `CC(=O)c1c(SCc2ccccc2)nc2c(Br)ccc(Cl)c2c1O` [Compound 52, 1-(2-(benzylthio)-8-bromo-5-chloro-4-hydroxyquinolin-3-yl)ethan-1-one], the IC50 in assay [1] (setting [3]), in assay [1] (setting [4]), in assay [1] (setting [5]), in assay [1] (setting [6]), in assay [1] (setting [7]) and in assay [2] was more than 2000 nM each time.

Regarding `CC(=O)c1c([S+]([O-])Cc2ccc(C(F)(F)F)o2)[nH]c2c(F)ccc(F)c2c1=O` (centres unmarked) [Compound 81, 3-acetyl-5,8-difluoro-2-(((5-(trifluoromethyl)furan-2-yl)methyl)sulfinyl)quinolin-4(1H)-one], the IC50 in assay [1] (setting [3]), in assay [1] (setting [4]), in assay [1] (setting [5]), in assay [1] (setting [6]) and in assay [2] was more than 2000 nM in each case.

As to `O=C(c1ccccc1)c1c([S+]([O-])Cc2ccc(S(F)(F)(F)(F)F)cc2)[nH]c2c(F)ccc(F)c2c1=O` (centres unmarked) [Compound 87, 3-benzoyl-5,8-difluoro-2-((4-(pentafluoro--sulfanyl)benzyl)sulfinyl)quinolin-4(1H)-one], the IC50 in assay [1] (setting [3]), in assay [1] (setting [4]), in assay [1] (setting [5]), in assay [1] (setting [6]) and in assay [2] was more than 2000 nM each time.

For the compound `Cc1cc(C[S+]([O-])c2[nH]c3c(Cl)ccc(Cl)c3c(=O)c2C(=O)C2CC2)no1` (centres unmarked) [Compound 97, 5,8-dichloro-3-(cyclopropanecarbonyl)-2-(((5-methylisoxazol-3-yl)methyl)sulfinyl)quinolin-4(1H)-one], the IC50 in assay [1] (setting [3]) was 1480 nM; in assay [1] (setting [4]), 1500 nM; in assay [1] (setting [5]), 1280 nM; in assay [1] (setting [6]) it was more than 2000 nM; in assay [1] (setting [7]) it was 1700 nM; in assay [2], 590 nM.

For `CSc1c(C(C)=O)c(=O)c2c(Cl)ccc(Br)c2n1S(=O)(=O)c1ccc([N+](=O)[O-])cc1` [Compound 38, 3-acetyl-8-bromo-5-chloro-2-(methylthio)-1-((4-nitrophenyl)sulfonyl)quinolin-4(1H)-one], the IC50 in assay [1] (setting [3]), in assay [1] (setting [4]), in assay [1] (setting [5]), in assay [1] (setting [6]), in assay [1] (setting [7]) and in assay [2] was more than 2000 nM throughout.

Consider `CC(=O)c1c([S+]([O-])Cc2ccc(C(=O)c3ccccc3)cc2)[nH]c2c(Br)ccc(Cl)c2c1=O` (centres unmarked) [Compound 63, 3-acetyl-2-((4-benzoylbenzyl)sulfinyl)-8-bromo-5-chloroquinolin-4(1H)-one], for which the IC50 in assay [1] (setting [3]), in assay [1] (setting [4]), in assay [1] (setting [5]), in assay [1] (setting [6]) and in assay [2] was more than 2000 nM throughout.

In the case of `CC(=O)c1c(SCc2ccccc2)[nH]c2c(Br)ccc(Cl)c2c1=O` [Compound 3, 3-acetyl-2-(benzylthio)-8-bromo-5-chloroquinolin-4(1H)-one], the IC50 in assay [1] (setting [3]), in assay [1] (setting [4]), in assay [1] (setting [5]), in assay [1] (setting [6]), in assay [1] (setting [7]) and in assay [2] was more than 2000 nM in each case.

`CC(=O)c1c([S+]([O-])C(C)c2ccccc2)[nH]c2c(Br)ccc(Cl)c2c1=O` (centres unmarked) [Compound 26, 3-acetyl-8-bromo-5-chloro-2-((1-phenylethyl)sulfinyl)quinolin-4(1H)-one]: the IC50 in assay [1] (setting [3]), in assay [1] (setting [4]), in assay [1] (setting [5]), in assay [1] (setting [6]) and in assay [2] was more than 2000 nM in each case.

As to `CC(=O)c1c(SCc2ccc([N+](=O)[O-])cc2)[nH]c2c(Br)ccc(Cl)c2c1=O` [Compound 32, 3-acetyl-8-bromo-5-chloro-2-((4-nitrobenzyl)thio)quinolin-4(1H)-one], the IC50 in assay [1] (setting [3]), in assay [1] (setting [4]), in assay [1] (setting [5]), in assay [1] (setting [6]), in assay [1] (setting [7]) and in assay [2] was more than 2000 nM each time.

`CC(=O)c1c(SC(C)C)[nH]c2c(Br)ccc(Cl)c2c1=O` [Compound 24, 3-acetyl-8-bromo-5-chloro-2-(isopropylthio)quinolin-4(1H)-one]: the IC50 in assay [1] (setting [3]), in assay [1] (setting [4]), in assay [1] (setting [5]), in assay [1] (setting [6]), in assay [1] (setting [7]) and in assay [2] was more than 2000 nM in each case.

As to `CC(=O)c1c(SCc2ccccc2)n(C(=O)c2ccc(Br)cc2)c2c(Br)ccc(Cl)c2c1=O` [Compound 23, 3-acetyl-2-(benzylthio)-8-bromo-1-(4-bromobenzoyl)-5-chloroquinolin-4(1H)-one], the IC50 in assay [1] (setting [3]), in assay [1] (setting [4]), in assay [1] (setting [5]), in assay [1] (setting [6]), in assay [1] (setting [7]) and in assay [2] was more than 2000 nM each time.

Consider `COCCNc1ccc(C[S+]([O-])c2[nH]c3c(Br)ccc(Cl)c3c(=O)c2C(C)=O)cn1` (centres unmarked) [Compound 105, 3-acetyl-8-bromo-5-chloro-2-(((6-((2-methoxyethyl)amino)pyridin-3-yl)methyl)sulfinyl)quinolin-4(1H)-one], for which the IC50 in assay [1] (setting [3]), in assay [1] (setting [4]), in assay [1] (setting [5]), in assay [1] (setting [6]) and in assay [2] was more than 2000 nM in each case.

Consider `CC(=O)c1c([S+]([O-])Cc2ccc(S(F)(F)(F)(F)F)cc2)[nH]c2c(Br)ccc(Cl)c2c1=O` (centres unmarked) [Compound 68, 3-acetyl-8-bromo-5-chloro-2-((4-(pentafluoro-16-sulfanyl)benzyl)sulfinyl)quinolin-4(1H)-one], for which the IC50 in assay [1] (setting [3]) is 1620 nM; in assay [1] (setting [4]) it was 940 nM; in assay [1] (setting [5]), 830 nM; in assay [1] (setting [6]), more than 2000 nM; in assay [1] (setting [7]) it was 1240 nM; in assay [2], 1160 nM.

Turning to `CSc1[nH]c2ccc(F)cc2c(=O)c1C(C)=O` [Compound 8, 1-(6-fluoro-4-hydroxy-2-(methylthio)quinolin-3-yl)ethan-1-one], the IC50 in assay [1] (setting [3]), in assay [1] (setting [4]), in assay [1] (setting [5]), in assay [1] (setting [6]), in assay [1] (setting [7]) and in assay [2] was more than 2000 nM each time.

As for `CC(=O)c1c([S+]([O-])Cc2cccc(S(F)(F)(F)(F)F)c2)[nH]c2c(Br)ccc(Cl)c2c1=O` (centres unmarked) [Compound 77, 3-acetyl-8-bromo-5-chloro-2-((3-(pentafluoro--sulfanyl)benzyl)sulfinyl)quinolin-4(1H)-one], the IC50 was more than 2000 nM in assay [1] (setting [3]); 930 nM in assay [1] (setting [4]); 930 nM in assay [1] (setting [5]); more than 2000 nM in assay [1] (setting [6]); 1480 nM in assay [1] (setting [7]); 1130 nM in assay [2].

As for `CC(=O)c1c([S+]([O-])Cc2ccc(SC(F)(F)F)cc2)[nH]c2c(Cl)ccc(Cl)c2c1=O` (centres unmarked) [Compound 79, 3-acetyl-5,8-dichloro-2-((4-((trifluoromethyl)thio)benzyl)sulfinyl)quinolin-4(1H)-one], the IC50 in assay [1] (setting [3]), in assay [1] (setting [4]), in assay [1] (setting [5]), in assay [1] (setting [6]) and in assay [2] was more than 2000 nM each time.

Turning to `CC(=O)c1c(SCc2cc(F)cc(F)c2)[nH]c2c(Br)ccc(Cl)c2c1=O` [Compound 45, 3-acetyl-8-bromo-5-chloro-2-((3,5-difluorobenzyl)thio)quinolin-4(1H)-one], the IC50 in assay [1] (setting [3]), in assay [1] (setting [4]), in assay [1] (setting [5]), in assay [1] (setting [6]), in assay [1] (setting [7]) and in assay [2] was more than 2000 nM in each case.

Consider `CC(=O)c1c([S+]([O-])c2ccc(Br)cc2)[nH]c2c(Br)ccc(Cl)c2c1=O` (centres unmarked) [Compound 17, 3-acetyl-8-bromo-2-((4-bromophenyl)sulfinyl)-5-chloroquinolin-4(1H)-one], for which the IC50 in assay [1] (setting [3]), in assay [1] (setting [4]), in assay [1] (setting [5]), in assay [1] (setting [6]) and in assay [2] was more than 2000 nM each time.
